Results: the NIST ThermoML archive (doi:10.1016/j.jct.2011.02.008)

Experiment: xn = mol fraction of the nth substance listed
Settings: Liquid, Vibrating tube method

COC(=O)c1ccccc1 [methyl benzoate] + C1CCCCC1
mass density [kg/m3]
Settings	x1 = 0.0985	x1 = 0.1963	x1 = 0.2939	x1 = 0.3942	x1 = 0.4955	x1 = 0.596	x1 = 0.6975	x1 = 0.7993	x1 = 0.8982
278.15 K, 100 kPa	823.9	855.7	887.6	919.6	951.4	983.4	1014.3	1043.9	1072.7
278.15 K, 1000 kPa	824.5	856.4	888.3	920.2	952	984	1014.9	1044.4	1073.2
278.15 K, 5000 kPa	827.6	859.3	891.2	923	954.8	986.7	1017.4	1046.9	1075.6
278.15 K, 10000 kPa	831.2	863	894.7	926.4	958	989.9	1020.5	1049.8	1078.5
278.15 K, 15000 kPa	834.6	866.3	898	929.7	961.2	993	1023.5	1052.8	1081.3
278.15 K, 20000 kPa	838	869.6	901.3	932.8	964.3	996	1026.4	1055.6	1084.1
278.15 K, 25000 kPa	841.2	872.8	904.4	935.9	967.3	998.9	1029.3	1058.3	1086.7
278.15 K, 30000 kPa	844.4	875.9	907.4	938.9	970.2	1001.7	1032	1061	1089.3
278.15 K, 35000 kPa	847.4	878.9	910.4	941.8	973	1004.5	1034.7	1063.6	1091.9
278.15 K, 40000 kPa	850.5	881.8	913.3	944.6	975.8	1007.2	1037.4	1066.2	1094.4
278.15 K, 45000 kPa	–	884.6	916.1	947.4	978.5	1009.9	1040	1068.7	1096.9
278.15 K, 50000 kPa	–	887.4	918.8	950	981.1	1012.5	1042.5	1071.2	1099.3
278.15 K, 55000 kPa	–	890.1	921.5	952.7	983.7	1015	1045	1073.7	1101.7
278.15 K, 60000 kPa	–	892.6	923.9	955.1	986.3	1017.4	1047.3	1075.9	1103.8
288.15 K, 100 kPa	814.3	846.1	878	909.9	941.8	973.8	1004.7	1034.2	1063.1
288.15 K, 1000 kPa	815	846.9	878.7	910.6	942.4	974.5	1005.3	1034.8	1063.7
288.15 K, 5000 kPa	818.2	850	881.8	913.6	945.3	976.6	1008	1037.5	1066.2
288.15 K, 10000 kPa	822	853.8	885.5	917.2	948.8	980.7	1011.3	1040.6	1069.2
288.15 K, 15000 kPa	825.8	857.4	889.1	920.7	952.2	983.9	1014.4	1043.6	1072.2
288.15 K, 20000 kPa	829.2	860.9	892.5	924	955.4	987.1	1017.5	1046.6	1075
288.15 K, 25000 kPa	832.7	864.3	895.8	927.2	958.6	990.1	1020.5	1049.5	1077.9
288.15 K, 30000 kPa	836	867.5	899	930.3	961.6	993.1	1023.4	1052.3	1080.6
288.15 K, 35000 kPa	839.1	870.7	902.1	933.4	964.6	996	1026.2	1055	1083.3
288.15 K, 40000 kPa	842.2	873.7	905.1	936.3	967.5	998.8	1028.9	1057.7	1085.9
288.15 K, 45000 kPa	845.2	876.7	908	939.2	970.3	1001.6	1031.6	1060.3	1088.4
288.15 K, 50000 kPa	848.1	879.6	910.9	942	973	1004.3	1034.3	1062.9	1090.9
288.15 K, 55000 kPa	850.9	882.4	913.6	944.7	975.7	1006.9	1036.8	1065.5	1093.4
288.15 K, 60000 kPa	853.5	885	916.2	947.2	978.2	1009.3	1039.2	1067.8	1095.9
298.15 K, 100 kPa	804.8	836.5	868.4	900.3	932.2	964.2	995.1	1024.7	1053.6
298.15 K, 1000 kPa	805.6	837.3	869.2	901	932.9	964.9	995.8	1025.3	1054.2
298.15 K, 5000 kPa	809	840.7	872.5	904.2	935.9	967.9	998.6	1028.1	1056.9
298.15 K, 10000 kPa	813.1	844.7	876.3	908	939.6	971.4	1002	1031.4	1060
298.15 K, 15000 kPa	817.1	848.6	880.1	911.7	943.2	974.8	1005.4	1034.6	1063.1
298.15 K, 20000 kPa	820.8	852.2	883.7	915.2	946.6	978.2	1008.5	1037.7	1066.1
298.15 K, 25000 kPa	824.4	855.8	887.2	918.6	949.9	981.4	1011.7	1040.7	1069
298.15 K, 30000 kPa	827.9	859.2	890.5	921.9	953.1	984.5	1014.7	1043.6	1071.9
298.15 K, 35000 kPa	831.2	862.5	893.8	925	956.2	987.5	1017.7	1046.5	1074.7
298.15 K, 40000 kPa	834.4	865.7	896.9	928.1	959.2	990.5	1020.5	1049.3	1077.4
298.15 K, 45000 kPa	837.5	868.8	900	931.1	962.1	993.4	1023.3	1052.1	1080.1
298.15 K, 50000 kPa	840.5	871.8	902.9	934	965	996.2	1026.1	1054.7	1082.7
298.15 K, 55000 kPa	843.4	874.7	905.8	936.9	967.8	999	1028.8	1057.4	1085.3
298.15 K, 60000 kPa	846.1	877.3	908.6	939.5	970.3	1001.4	1031.3	1059.9	1087.8
308.15 K, 100 kPa	795.4	827	858.8	890.8	922.6	954.7	985.6	1015.2	1044.1
308.15 K, 1000 kPa	796.2	827.8	859.6	891.5	923.4	955.4	986.3	1015.9	1044.7
308.15 K, 5000 kPa	799.8	831.2	863.1	894.9	926.6	958.5	989.3	1018.7	1047.5
308.15 K, 10000 kPa	804.3	835.7	867.2	898.9	930.5	962.3	992.9	1022.2	1050.8
308.15 K, 15000 kPa	808.3	839.8	871.2	902.8	934.2	965.9	996.4	1025.6	1054.1
308.15 K, 20000 kPa	812.3	843.6	875	906.5	937.8	969.4	999.8	1028.8	1057.2
308.15 K, 25000 kPa	816.1	847.3	878.7	910	941.3	972.8	1003	1032	1060.3
308.15 K, 30000 kPa	819.7	850.9	882.2	913.5	944.6	976	1006.2	1035	1063.3
308.15 K, 35000 kPa	823.2	854.4	885.6	916.8	947.9	979.2	1009.3	1038	1066.2
308.15 K, 40000 kPa	826.5	857.7	888.9	920	951	982.3	1012.3	1041	1069
308.15 K, 45000 kPa	829.8	861	892.1	923.2	954.1	985.3	1015.2	1043.8	1071.8
308.15 K, 50000 kPa	833	864.1	895.1	926.2	957.1	988.2	1018.1	1046.6	1074.6
308.15 K, 55000 kPa	836	867.1	898.2	929.2	960	991.1	1020.9	1049.3	1077.2
308.15 K, 60000 kPa	838.8	869.5	900.9	931.9	962.7	993.7	1023.4	1051.9	1079.9
318.15 K, 100 kPa	785.8	817.4	849.2	881.3	913.1	945.2	976.1	1005.8	1034.6
318.15 K, 1000 kPa	786.8	818.3	850.1	882.1	913.9	945.9	976.8	1006.5	1035.2
318.15 K, 5000 kPa	790.7	822	853.8	885.7	917.3	949.3	980	1009.5	1038.2
318.15 K, 10000 kPa	795.2	826.6	858.2	889.9	921.4	953.2	983.8	1013.1	1041.7
318.15 K, 15000 kPa	799.7	830.9	862.4	893.9	925.4	957	987.5	1016.7	1045.1
318.15 K, 20000 kPa	803.8	835.1	866.4	897.8	929.1	960.7	991	1020.1	1048.4
318.15 K, 25000 kPa	807.8	839	870.2	901.5	932.7	964.2	994.4	1023.3	1051.6
318.15 K, 30000 kPa	811.6	842.8	–	–	–	–	–	–	–
